# Test results as given in US8541670B2, “Compositions and methods for inhibiting tumor cell growth” (priority 2007, dated 2013).
# Where no end group is shown, it is not given here.
# What was measured:
# AKT1 = molecular target: T1, AKT1 (Homo sapiens, UniProt P31749); test: AKT kinase assay with Ser-9 GSK-3 GST fusion protein substrate (western blot, phospho-specific antibody); type: biochemical; settings: wild-type active AKT
# T1 construct: purchased Upstate Biotechnology
# Description: Since the observed effect of H-89 and forskolin on AKT activity in cultured cells could be interpreted as the result of the regulatory interference of other signaling pathways, in vitro analysis was carried using purified, active forms of AKT and PKAc to examine the direct result of this interaction on the kinase catalytic activity. […] This decrease in the catalytic activity of AKT by PKAc was inhibited when the PKA inhibitor was added to the reaction mixture. […] The decrease in the catalytic activity of AKT by PKAc was also observed with two mutants and active forms of AKT1, one with a deletion in the PH domain and the other one with a Ser473Asp mutation. As with wild-type AKT, the inhibitory effect of PKAc on the mutants was reversed in the presence of the PKA inhibitor peptide. […]
# For non-radioactive kinase assays, typically 25 ng of active AKT1 or PKAc (Upstate Biotechnology) was used in a kinase assay reaction buffer (20 mM MOPS, pH 7.2, 25 mM […]-glycerophosphate, 5 mM EGTA, 1 mM Na3VO4, 1 mM dithiothreitol, 75 mM MgCl2, and 0.5 mM ATP) in the presence of either 1 μL of Ser-9 GSK-3 GST fusion protein (Cell Signaling), or recombinant DARPP-32 (10 μg). […] A 5 μL aliquot of the reaction was transferred to phosphocellulose paper, washed for 30 minutes with dH2O, and CPM of samples read in scintillation counter.
# N2a cells = test: MTT cell proliferation assay; type: cell-based
# Description: In histogram series 2, treatments were removed after 24 hours and cells were incubated for another 24 hours without treatment. […] Mitochondrial activity (reflecting cellular growth and viability) in the presence of ZaTa and ZaTa variants (ZaTa T10D, ZaTa T8D, ZaTa T14R, and ZaTa Y17T) was evaluated by measuring the optical density (“OD”) at 490 nm on a plate reader. ZaTa T10D refers to a ZaTa polypeptide variant in which the Threonine (T) at position 10 of SEQ ID NO: 60 is substituted by an Aspartic Acid (D). ZaTa T8D refers to a ZaTa polypeptide variant in which the Threonine (T) at position 8 of SEQ ID NO: 60 is substituted by an Aspartic Acid (D). ZaTa T14R refers to a ZaTa polypeptide variant in which the Threonine (T) at position 14 of SEQ ID NO: 60 is substituted by an Arginine (R). ZaTa Y17T refers to a ZaTa polypeptide variant in which the Tyrosine (Y) at position 17 of SEQ ID NO: 60 is substituted by an Threonine (T).
# AKT affects a network that positively regulates G1/S cell cycle progression through several mechanisms that involve the expression and subcellular localization of the CDK inhibitor p27^Kip1 (Blain and Massague (2002) Nat. Med. 8:1076-1078; Liang, et al. (2002) supra; Shin, et al. (2002) supra; Viglietto, et al. (2002) supra). Based on these studies, the effect of ZaTa peptide on cell proliferation was assessed. […] Capturing live images of cultured N2a cells in the presence of different concentrations of the ZaTa peptide confirmed an obvious reduction in the number of dividing cells.
# Based on the importance of the C-terminal arm of ZaTa for its inhibitory action on AKT, it was determined whether the free hydroxyl groups on residues Thr-8, Thr-10 (equivalent to Thr-197 in full-length PKAc), Thr-14 and Tyr-17 were important for the biological activity of this peptide. Mutants of ZaTa peptide were synthesized by replacing Thr-8 or Thr-10 residues with Asp (ZaTa^T8D and ZaTa^T10D, respectively) as an amino acid with a negatively charged side chain. Mutants of ZaTa with the hydrophilic positively charged amino acid Arg at either position Thr-14 or Tyr-17 (ZaTa^T14R and ZaTa^Y17R, respectively) were also synthesized. […] The inhibitory effect of ZaTa peptide on cell proliferation was reversible, to a large extent, after the removal of ZaTa treatment (FIG. 3, histogram series 2).
# Cells (5×10^3) were incubated in 96-well plates in the presence of different concentrations of the ZaTa peptide, control peptide or DMSO as vehicle. Media was removed at different time intervals and replaced with media containing MTT (5 mg/mL), and incubated for one hour at 37° C. […] The activity of the mitochondria, reflecting cellular growth and viability, was evaluated by measuring the optical density at 490 nm on a plate reader.
# T1 sequence (P31749 whole entry, the tested form may be a part): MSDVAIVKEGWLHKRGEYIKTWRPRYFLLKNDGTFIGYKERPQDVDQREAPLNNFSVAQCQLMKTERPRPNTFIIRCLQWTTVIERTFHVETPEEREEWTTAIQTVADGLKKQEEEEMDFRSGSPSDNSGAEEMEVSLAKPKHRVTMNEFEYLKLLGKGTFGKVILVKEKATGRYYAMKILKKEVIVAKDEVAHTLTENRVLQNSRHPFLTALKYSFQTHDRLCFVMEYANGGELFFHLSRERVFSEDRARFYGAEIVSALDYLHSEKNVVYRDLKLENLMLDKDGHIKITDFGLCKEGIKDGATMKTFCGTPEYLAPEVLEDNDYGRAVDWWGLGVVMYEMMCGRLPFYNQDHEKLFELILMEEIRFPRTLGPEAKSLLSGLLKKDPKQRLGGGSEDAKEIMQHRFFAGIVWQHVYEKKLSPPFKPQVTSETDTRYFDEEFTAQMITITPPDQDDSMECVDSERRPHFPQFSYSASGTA
sequence,measurement,setting,value
AKRVKGRTWTLCGTPEY [ZaTa],"AKT catalytic activity, phosphorylation level of Ser-9 GSK-3 GST substrate",AKT1,significantly reduced
same,dose causing significant decrease in the number of live cells (as low as),N2a cells,2 µM
same,number of live cells 24 hours after removal of treatment versus DMSO vehicle,"N2a cells; 10 μM, 24 hours treatment then 24 hours without",no significant differences
same,"number of live cells, MTT",N2a cells; different concentrations,dose-dependent decrease in the number of live cells
